BindingDB's records for doi:10.1021/acsmedchemlett.6b00306 (The University of Queensland, 2016)

Molecular target: T1, Proteinase-activated receptor 2 (Homo sapiens, UniProt P55085)
T1 sequence (P55085 whole entry): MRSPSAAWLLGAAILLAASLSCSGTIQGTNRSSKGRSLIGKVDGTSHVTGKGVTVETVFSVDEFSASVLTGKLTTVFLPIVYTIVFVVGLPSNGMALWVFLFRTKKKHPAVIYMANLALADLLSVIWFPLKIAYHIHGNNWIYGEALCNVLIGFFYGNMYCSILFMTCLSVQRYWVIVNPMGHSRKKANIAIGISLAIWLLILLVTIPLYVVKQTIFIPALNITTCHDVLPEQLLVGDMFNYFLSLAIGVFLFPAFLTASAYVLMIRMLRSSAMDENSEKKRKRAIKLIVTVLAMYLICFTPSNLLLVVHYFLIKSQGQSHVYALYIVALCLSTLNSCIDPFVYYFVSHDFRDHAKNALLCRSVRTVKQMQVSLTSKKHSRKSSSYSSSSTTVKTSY
Assay: Antagonist activity at PAR2 in human HT-29 cells assessed as inhibition of 2f-LIGRLO-NH2-stimulated intracellular calcium release preincubated for 30 mins followed by 2f-LIGRLO-NH2 stimulation measured for 60 sec by Fluo-3 AM dye based FLIPR assay

## CC[C@H](C)[C@H](NC(=O)[C@H](CC1CCCCC1)NC(=O)c1ccno1)C(=O)N1CCCC[C@H]1C(=O)NC(C)(C)C
  IC50: 7.94 µM
